Experimental data: patent US10544143B2, “4-azaindole compounds” (BRISTOL-MYERS SQUIBB COMPANY, priority 2017, dated 2020)

Columns and labels:
[1] = target: human TLR7 (Homo sapiens (Human), UniProt Q9NYK1); assay: TLR7 inhibition reporter assay (HEK-Blue SEAP); format: cell-based; conditions: HEK-Blue human TLR7 cells, gardiquimod 7.5 μM
[2] = target: human TLR8 (Homo sapiens (Human), UniProt Q9NR97); assay: TLR8 inhibition reporter assay (HEK-Blue SEAP); conditions: read-out: TLR8 IC50; HEK-Blue human TLR8 cells, R848 15.9 μM;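 note: SEAP driven by IFN-β minimal promoter carrying NF-κB and AP-1 sites, compounds dosed 0.05 nM to 50 µM for 22 h, inhibition scaled between agonist-plus-DMSO and reference-inhibitor wells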
Chain of human TLR8 (Q9NR97 27-1041): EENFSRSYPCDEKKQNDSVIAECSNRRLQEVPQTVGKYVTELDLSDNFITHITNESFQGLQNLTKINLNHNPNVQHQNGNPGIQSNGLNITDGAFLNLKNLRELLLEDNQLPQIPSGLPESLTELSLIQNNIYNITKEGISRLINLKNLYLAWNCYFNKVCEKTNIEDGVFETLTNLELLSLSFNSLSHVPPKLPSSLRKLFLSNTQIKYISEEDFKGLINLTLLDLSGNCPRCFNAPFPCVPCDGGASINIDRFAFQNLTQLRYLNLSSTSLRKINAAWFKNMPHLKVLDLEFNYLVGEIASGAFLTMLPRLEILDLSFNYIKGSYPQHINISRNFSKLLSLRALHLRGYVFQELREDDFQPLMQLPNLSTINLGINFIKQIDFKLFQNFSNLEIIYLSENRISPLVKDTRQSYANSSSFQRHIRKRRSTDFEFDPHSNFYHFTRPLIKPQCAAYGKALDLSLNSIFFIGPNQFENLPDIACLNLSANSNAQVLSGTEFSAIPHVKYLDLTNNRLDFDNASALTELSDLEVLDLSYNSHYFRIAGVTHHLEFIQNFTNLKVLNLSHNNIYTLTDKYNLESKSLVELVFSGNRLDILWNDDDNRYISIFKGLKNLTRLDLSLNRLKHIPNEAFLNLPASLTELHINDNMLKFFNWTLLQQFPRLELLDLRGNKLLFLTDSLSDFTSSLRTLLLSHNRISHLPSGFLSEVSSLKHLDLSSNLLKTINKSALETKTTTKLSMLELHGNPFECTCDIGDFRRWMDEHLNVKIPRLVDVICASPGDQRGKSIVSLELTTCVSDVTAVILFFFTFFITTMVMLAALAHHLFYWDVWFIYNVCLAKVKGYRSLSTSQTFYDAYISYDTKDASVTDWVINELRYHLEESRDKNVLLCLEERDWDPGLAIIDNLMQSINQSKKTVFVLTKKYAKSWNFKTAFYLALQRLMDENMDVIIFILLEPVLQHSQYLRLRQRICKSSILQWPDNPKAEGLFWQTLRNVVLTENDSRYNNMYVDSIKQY

[3] = target: human TLR9 (Homo sapiens (Human), UniProt Q9NR96); assay: TLR9 inhibition reporter assay (HEK-Blue SEAP); conditions: read-out: TLR9 IC50; HEK-Blue human TLR9 cells, ODN2006 5 nM;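 note: SEAP driven by an IFN-β minimal promoter with NF-κB and AP-1 sites, read after 22 h, compounds dosed 0.05 nM–50 µM, inhibition scaled between agonist plus DMSO and reference-inhibitor wells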
Chain of human TLR9 (Q9NR96 26-1032): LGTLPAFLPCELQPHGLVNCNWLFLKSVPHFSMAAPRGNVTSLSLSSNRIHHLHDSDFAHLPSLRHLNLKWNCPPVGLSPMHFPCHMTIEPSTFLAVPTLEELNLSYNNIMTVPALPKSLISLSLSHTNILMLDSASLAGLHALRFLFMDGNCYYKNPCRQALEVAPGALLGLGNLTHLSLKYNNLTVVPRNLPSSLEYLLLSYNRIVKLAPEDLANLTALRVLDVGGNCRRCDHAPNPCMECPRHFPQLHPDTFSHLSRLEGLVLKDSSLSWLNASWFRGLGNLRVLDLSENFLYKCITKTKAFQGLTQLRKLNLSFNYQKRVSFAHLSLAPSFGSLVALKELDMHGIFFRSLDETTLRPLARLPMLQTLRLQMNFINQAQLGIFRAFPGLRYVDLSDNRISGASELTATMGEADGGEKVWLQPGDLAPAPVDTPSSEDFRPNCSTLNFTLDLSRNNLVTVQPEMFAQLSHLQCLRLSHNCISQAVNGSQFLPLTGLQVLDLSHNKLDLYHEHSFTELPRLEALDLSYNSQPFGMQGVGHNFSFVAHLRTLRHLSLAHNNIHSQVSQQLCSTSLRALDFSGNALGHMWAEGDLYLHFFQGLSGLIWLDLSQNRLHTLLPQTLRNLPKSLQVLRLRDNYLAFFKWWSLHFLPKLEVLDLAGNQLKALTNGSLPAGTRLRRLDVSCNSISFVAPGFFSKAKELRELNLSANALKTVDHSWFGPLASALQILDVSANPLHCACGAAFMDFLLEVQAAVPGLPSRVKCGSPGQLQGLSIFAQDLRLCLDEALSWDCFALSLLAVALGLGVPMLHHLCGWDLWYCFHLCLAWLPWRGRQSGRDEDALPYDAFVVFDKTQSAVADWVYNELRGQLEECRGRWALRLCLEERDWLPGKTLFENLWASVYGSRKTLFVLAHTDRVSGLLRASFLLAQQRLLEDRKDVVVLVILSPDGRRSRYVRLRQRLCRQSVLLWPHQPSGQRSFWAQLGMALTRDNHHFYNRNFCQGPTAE

Chain of human TLR7 (Q9NYK1 27-1049): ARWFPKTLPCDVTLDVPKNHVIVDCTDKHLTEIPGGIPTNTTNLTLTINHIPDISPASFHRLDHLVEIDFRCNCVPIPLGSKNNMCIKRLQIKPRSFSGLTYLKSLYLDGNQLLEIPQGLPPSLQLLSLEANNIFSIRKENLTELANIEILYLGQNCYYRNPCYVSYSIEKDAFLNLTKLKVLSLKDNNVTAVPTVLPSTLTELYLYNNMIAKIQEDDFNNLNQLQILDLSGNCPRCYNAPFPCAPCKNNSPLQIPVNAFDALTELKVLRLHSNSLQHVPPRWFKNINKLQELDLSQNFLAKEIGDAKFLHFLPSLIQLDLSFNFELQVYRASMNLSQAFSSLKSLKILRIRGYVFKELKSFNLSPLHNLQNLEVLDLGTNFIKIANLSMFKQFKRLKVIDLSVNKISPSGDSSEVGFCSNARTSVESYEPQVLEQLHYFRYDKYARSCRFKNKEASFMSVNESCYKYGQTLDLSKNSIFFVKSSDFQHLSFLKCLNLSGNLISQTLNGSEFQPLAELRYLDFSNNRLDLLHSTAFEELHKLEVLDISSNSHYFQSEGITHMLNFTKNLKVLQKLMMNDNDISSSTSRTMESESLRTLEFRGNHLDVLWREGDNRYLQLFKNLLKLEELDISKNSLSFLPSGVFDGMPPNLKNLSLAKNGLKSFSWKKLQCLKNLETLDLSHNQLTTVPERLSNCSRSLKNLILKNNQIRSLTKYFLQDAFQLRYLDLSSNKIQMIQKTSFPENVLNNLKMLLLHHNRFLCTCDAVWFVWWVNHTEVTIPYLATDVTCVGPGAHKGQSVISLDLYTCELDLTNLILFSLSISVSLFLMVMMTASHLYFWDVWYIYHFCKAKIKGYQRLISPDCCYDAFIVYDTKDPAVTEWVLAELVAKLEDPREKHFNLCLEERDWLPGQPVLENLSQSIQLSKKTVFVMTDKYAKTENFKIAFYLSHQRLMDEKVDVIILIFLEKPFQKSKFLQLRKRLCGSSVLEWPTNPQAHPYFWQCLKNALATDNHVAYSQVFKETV

Row | SMILES | IC50 [1] [nM] | IC50 [2] [nM] | IC50 [3] [nM]
1 | COc1cc(-c2[nH]c3ccc(C4CCC(N5CC6(COC6)C5)CC4)nc3c2C(C)C)cn2ncnc12 (stereo not drawn) [Example 1037] | 3.1 | 6.2 | 1610
2 | CCN(C1CCC(c2ccc3[nH]c(-c4cn5ncnc5c(C)c4C)c(C(C)C)c3n2)CC1)C1COC1 (stereo not drawn) [Example 1038] | 0.98 | 1.3 | 1910
3 | CCN(C1CCC(c2ccc3[nH]c(-c4cn5ncnc5c(C)c4C)c(C(C)C)c3n2)CC1)C1COC1 (stereo not drawn) [Example 1039] | 7.2 | 6.4 | 3070
4 | Cc1c(-c2[nH]c3ccc(C4CCC(N5CC(C)(C)C5)CC4)nc3c2C(C)C)cn2ncnc2c1C (stereo not drawn) [Example 1040] | 0.17 | 0.66 | 1110
5 | Cc1c(-c2[nH]c3ccc(C4CCC(N5CC(C)(O)C5)CC4)nc3c2C(C)C)cn2ncnc2c1C (stereo not drawn) [Example 1041] | 0.49 | 0.85 | 2420
6 | COC1CN(C2CCC(c3ccc4[nH]c(-c5cn6ncnc6c(C)c5C)c(C(C)C)c4n3)CC2)C1 (stereo not drawn) [Example 1042] | 2.2 | 3.3 | 3320
7 | Cc1c(-c2[nH]c3ccc(C4CCC(NC5CCS(=O)(=O)CC5)CC4)nc3c2C(C)C)cn2ncnc2c1C (stereo not drawn) [Example 1043] | 2.1 | 1.6 | 1750
8 | Cc1c(-c2[nH]c3ccc(C4CCC(N5CC(C)(O)C5)CC4)nc3c2C(C)C)cn2ncnc2c1C (stereo not drawn) [Example 1044] | 4.1 | 9.2 | 3600
9 | COC1CN(C2CCC(c3ccc4[nH]c(-c5cn6ncnc6c(C)c5C)c(C(C)C)c4n3)CC2)C1 (stereo not drawn) [Example 1045] | 4.8 | 3.6 | 3240
10 | Cc1c(-c2[nH]c3ccc(C4CCC(N5CC(O)C5)CC4)nc3c2C(C)C)cn2ncnc2c1C (stereo not drawn) [Example 1046] | 0.64 | 2.4 | 2500
11 | Cc1c(-c2[nH]c3ccc(C4CCC(N5CC(C(=O)N(C)C)C5)CC4)nc3c2C(C)C)cn2ncnc2c1C (stereo not drawn) [Example 1047] | 1.3 | 3.5 | 4490
12 | Cc1c(-c2[nH]c3ccc(C4CCC(N(C)C(C)C)CC4)nc3c2C(C)C)cn2ncnc2c1C (stereo not drawn) [Example 1048] | 4.4 | 13 | 9830
13 | Cc1c(-c2[nH]c3ccc(C4CCC(N5CC(O)C5)CC4)nc3c2C(C)C)cn2ncnc2c1C (stereo not drawn) [Example 1049] | 1.6 | 5.4 | 2600
14 | Cc1c(-c2[nH]c3ccc(C4CCC(N5CC(C(=O)N(C)C)C5)CC4)nc3c2C(C)C)cn2ncnc2c1C (stereo not drawn) [Example 1050] | 2.8 | 4.8 | 2660
15 | Cc1c(-c2[nH]c3ccc(C4CCC(N5CCC5)CC4)nc3c2C(C)C)cn2ncnc2c1C (stereo not drawn) [Example 1051] | 0.41 | 1.5 | 1910
16 | Cc1c(-c2[nH]c3ccc(C4CCC(N5CC(C)(C)C5)CC4)nc3c2C(C)C)cn2ncnc2c1C (stereo not drawn) [Example 1052] | 8.9 | 17 | 5920
17 | Cc1c(-c2[nH]c3ccc([C@H]4CC[C@@H](N5CC6(C5)CS(=O)(=O)C6)CC4)nc3c2C(C)C)cn2ncnc2c1C [Example 1053] | 2.5 | 4.8 | 4810
18 | Cc1c(-c2[nH]c3ccc(C4CCC(NC(C)(C)C)CC4)nc3c2C(C)C)cn2ncnc2c1C (stereo not drawn) [Example 1054] | 5.4 | 1.7 | 1690
19 | Cc1c(-c2[nH]c3ccc(C4CCC(N5CC6(CCO6)C5)CC4)nc3c2C(C)C)cn2ncnc2c1C (stereo not drawn) [Example 1055] | 4.3 | 8.3 | 5470
20 | Cc1c(-c2[nH]c3ccc(C4CCC(NC(C)(C)C)CC4)nc3c2C(C)C)cn2ncnc2c1C (stereo not drawn) [Example 1056] | 2.1 | 1.2 | 2990
21 | Cc1c(-c2[nH]c3ccc(C4CCC(N5CC6(CCO6)C5)CC4)nc3c2C(C)C)cn2ncnc2c1C (stereo not drawn) [Example 1057] | 0.81 | 1.7 | 2700
22 | Cc1c(-c2[nH]c3ccc(C4CCC(N5CCC(F)C5)CC4)nc3c2C(C)C)cn2ncnc2c1C (stereo not drawn) [Example 1058] | 1.9 | 3.5 | 5280
23 | Cc1c(-c2[nH]c3ccc(C4CCC(N5CCC6(CCOC6)C5)CC4)nc3c2C(C)C)cn2ncnc2c1C (stereo not drawn) [Example 1059] | 1.6 | 1.4 | 2250
24 | Cc1c(-c2[nH]c3ccc(C4CCC(N5CCC6(COC6)C5)CC4)nc3c2C(C)C)cn2ncnc2c1C (stereo not drawn) [Example 1060] | 0.5 | 0.5 | 2600
25 | Cc1c(-c2[nH]c3ccc(C4CCC(N5CC6(CCOC6)C5)CC4)nc3c2C(C)C)cn2ncnc2c1C (stereo not drawn) [Example 1061] | 2.7 | 4.8 | 3180
